Read-outs that look alike come from different tables or passages of the source.
Tests used:
A498 = experiment: NCI60 one-dose screen (10 μM), Renal Cancer; format: cell-based; settings: Homo sapiens
TK-10 = experiment: NCI60 one-dose screen (10 μM), Renal Cancer; format: cell-based; settings: Homo sapiens
UACC-62 = experiment: NCI60 one-dose screen (10 μM), Melanoma; format: cell-based; settings: Homo sapiens
SK-OV-3 = experiment: NCI60 one-dose screen (10 μM), Ovarian Cancer; format: cell-based; settings: Homo sapiens
OVCAR-5 = experiment: NCI60 one-dose screen (10 μM), Ovarian Cancer; format: cell-based; settings: Homo sapiens
HOP-62 = experiment: NCI60 one-dose screen (10 μM), Non-small Cell Lung Cancer; format: cell-based; settings: Homo sapiens
RPMI-8226 = experiment: NCI60 one-dose screen (10 μM), Leukemia; format: cell-based; settings: Homo sapiens
MDA-MB-468 = experiment: NCI60 one-dose screen (10 μM), Breast Cancer; format: cell-based; settings: Homo sapiens
UO-31 = experiment: NCI60 one-dose screen (10 μM), Renal Cancer; format: cell-based; settings: Homo sapiens
NCI-H226 = experiment: NCI60 one-dose screen (10 μM), Non-small Cell Lung Cancer; format: cell-based; settings: Homo sapiens
BT-549 = experiment: NCI60 one-dose screen (10 μM), Breast Cancer; format: cell-based; settings: Homo sapiens
MDA-MB-231/ATCC = experiment: NCI60 one-dose screen (10 μM), Breast Cancer; format: cell-based, human; settings: Homo sapiens
PC-3 = experiment: NCI60 one-dose screen (10 μM), Prostate Cancer; format: cell-based; settings: Homo sapiens
SR = experiment: NCI60 one-dose screen (10 μM), Leukemia; format: cell-based; settings: Homo sapiens, read-out: Growth percent rate
HS 578T = experiment: NCI60 one-dose screen (10 μM), Breast Cancer; format: cell-based; settings: Homo sapiens, read-out: Growth percent rate
NCI/ADR-RES = experiment: NCI60 one-dose screen (10 μM), Ovarian Cancer; format: cell-based; settings: Homo sapiens, read-out: Growth percent rate
HOP-92 = experiment: NCI60 one-dose screen (10 μM), Non-small Cell Lung Cancer; format: cell-based; settings: Homo sapiens
T-47D = experiment: NCI60 one-dose screen (10 μM), Breast Cancer; format: cell-based; settings: Homo sapiens, T47D, read-out: Growth percent rate
U251 = experiment: NCI60 one-dose screen (10 μM), CNS Cancer; format: cell-based; settings: Homo sapiens

Compound `CC[C@]12C=CCN3CC[C@@]4(c5ccc(OC)cc5N(C)[C@H]4[C@@](O)(C(=O)OC)[C@@H]1OC(=O)CCC(=O)N1CCN(C(=O)c4ccco4)CC1)[C@@H]32` [Compound 32] has an activity at 10 µM (A498; A498, read-out: Growth percent rate) of 117%, an activity at 10 µM (TK-10; TK-10, read-out: Growth percent rate) of 103% and an activity at 10 µM (UACC-62; UACC-62, read-out: Growth percent rate) of 59.5%. It also gave an activity at 10 µM (SK-OV-3; SK-OV-3, read-out: Growth percent rate) of 111%, an activity at 10 µM (OVCAR-5; OVCAR-5, read-out: Growth percent rate) of 105% and an activity at 10 µM (HOP-62; HOP-62, read-out: Growth percent rate) of 96.2%. For the same compound, the activity at 10 µM (RPMI-8226; RPMI-8226, read-out: Growth percent rate) was 99.4%, the activity at 10 µM (MDA-MB-468; MDA-MB-468, read-out: Growth percent rate) was 78% and the activity at 10 µM (UO-31; UO-31, read-out: Growth percent rate) was 98.8%. The activity at 10 µM (NCI-H226; NCI-H226, read-out: Growth percent rate) was 115%, the activity at 10 µM (BT-549; BT-549, read-out: Growth percent rate) was 122% and the activity at 10 µM (MDA-MB-231/ATCC; MDA-MB-231, read-out: Growth percent rate) was 91.1%. For the same compound, the activity at 10 µM (PC-3; PC-3, read-out: Growth percent rate) was 90.6%, the activity at 10 µM (SR) was 117% and the activity at 10 µM (HS 578T; Hs-578T) was 103%. It also gave an activity at 10 µM (NCI/ADR-RES) of 106%, an activity at 10 µM (HOP-92; HOP-92, read-out: Growth percent rate) of 92.4% and an activity at 10 µM (T-47D) of 92.5%. The activity at 10 µM (U251; U-251, read-out: Growth percent rate) was 97.4%.
`CC[C@]12C=CCN3CC[C@@]4(c5ccc(OC)cc5N(C)[C@H]4[C@@](O)(C(=O)OC)[C@@H]1OC(=O)CCC(=O)N1CCN(Cc4ccc(F)cc4)CC1)[C@@H]32` [Compound 30] showed an activity at 10 µM (A498; 10 μM, A498, Renal Cancer, read-out: Growth percent rate) of 110%, an activity at 10 µM (TK-10; 10 μM, TK-10, Renal Cancer, read-out: Growth percent rate) of 60.6% and an activity at 10 µM (UACC-62; 10 μM, UACC-62, Melanoma, read-out: Growth percent rate) of 67.1%. It also gave an activity at 10 µM (SK-OV-3; 10 μM, SK-OV-3, Ovarian Cancer, read-out: Growth percent rate) of 103%, an activity at 10 µM (OVCAR-5; 10 μM, OVCAR-5, Ovarian Cancer, read-out: Growth percent rate) of 96.3% and an activity at 10 µM (HOP-62; 10 μM, HOP-62, Non-small Cell Lung Cancer, read-out: Growth percent rate) of 88.4%. The activity at 10 µM (RPMI-8226; 10 μM, RPMI-8226, Leukemia, read-out: Growth percent rate) was 46.3%, the activity at 10 µM (MDA-MB-468; 10 μM, MDA-MB-468, Breast Cancer, read-out: Growth percent rate) was 1.38% and the activity at 10 µM (UO-31; 10 μM, UO-31, Renal Cancer, read-out: Growth percent rate) was 62.3%. For the same compound, the activity at 10 µM (NCI-H226; 10 μM, NCI-H226, Non-small Cell Lung Cancer, read-out: Growth percent rate) was 69.9%, the activity at 10 µM (BT-549; 10 μM, BT-549, Breast Cancer, read-out: Growth percent rate) was 98.1% and the activity at 10 µM (MDA-MB-231/ATCC; 10 μM, MDA-MB-231/ATCC, Breast Cancer, read-out: Growth percent rate) was 65.3%. For the same compound, the activity at 10 µM (PC-3; 10 μM, PC-3, Prostate Cancer, read-out: Growth percent rate) was 44.5%, the activity at 10 µM (SR; 10 μM, Leukemia) was 56.4% and the activity at 10 µM (HS 578T; 10 μM, HS 578T, Breast Cancer) was 78.5%. The activity at 10 µM (NCI/ADR-RES; 10 μM, Ovarian Cancer) was 65.2%, the activity at 10 µM (HOP-92; 10 μM, HOP-92, Non-small Cell Lung Cancer, read-out: Growth percent rate) was 66.4% and the activity at 10 µM (T-47D; 10 μM, T-47D, Breast Cancer) was 73.8%. It also gave an activity at 10 µM (U251; U-251, 10 μM, U251, CNS Cancer, read-out: Growth percent rate) of 71.6%.

— publication PMC11277489, “Novel Piperazine Derivatives of Vindoline as Anticancer Agents” (International Journal of Molecular Sciences, 2024)
